{
  "source": "patent US20230324392A1",
  "about": "“METHODS AND COMPOSITIONS FOR TARGETING CYTOSOLIC DSDNA SIGNALING IN CHROMOSOMALLY UNSTABLE CANCERS” (MEMORIAL SLOAN KETTERING CANCER CENTER, priority 2020, published 2023)",
  "key": {"STING": {"target": "T1, STING (Mus musculus, UniProt Q3TBT3)", "T1 construct": "endogenous in cells; host or cells: Cgas-KO 4T1 cells (mouse mammary carcinoma; parental line from ATCC)", "T1 sequence (Q3TBT3 1-378)": "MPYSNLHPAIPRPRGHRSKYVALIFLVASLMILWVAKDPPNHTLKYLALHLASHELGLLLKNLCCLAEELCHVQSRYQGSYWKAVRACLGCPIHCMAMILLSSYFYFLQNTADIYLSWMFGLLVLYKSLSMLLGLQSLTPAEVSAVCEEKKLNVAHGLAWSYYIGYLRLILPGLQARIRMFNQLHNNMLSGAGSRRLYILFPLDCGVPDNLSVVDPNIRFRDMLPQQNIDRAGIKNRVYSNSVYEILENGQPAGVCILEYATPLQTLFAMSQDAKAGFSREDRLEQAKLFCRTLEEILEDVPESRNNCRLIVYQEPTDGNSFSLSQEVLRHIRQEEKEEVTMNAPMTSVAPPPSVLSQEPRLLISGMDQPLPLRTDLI", "test": "ISG expression in cGAMP-transfected Cgas-KO 4T1 cells with or without C-176", "assay_type": "cell-based", "details": "in the presence of C-176", "quoted_text": "Quantitative PCR for STING inhibition study: RNA was extracted from cells with Trizol (Invitrogen, Carlsbad, CA, #15596026). cDNA was synthesized using the RNA to cDNA EcoDry™ Premix (Double Primed) kit (Takara #639549). Real-time PCR was performed to measure the relative mRNA expression levels of ISGs and the control GAPDH using Luna® Universal qPCR Master Mix (NEB, IPSWICH, MA, M3003L). The qPCR reaction and analysis were performed on a QuantStudio 6 platform (Life technology, Carlsbad, CA). The sequence of primers for Ccl5 is 5′-[sequence]-3′ and 5′-[sequence]-3′. […] The sequence for primers for Gapdh is 5′-[sequence]-3′ and 5′-[sequence]-3′."}, "STING-KO B16F10 cells": {"system": "STING-KO B16F10 cells", "test": "Tail vein inoculation of STING-KO B16F10 cells in C57BL/6 mice, survival", "assay_type": "in vivo, mouse", "details": "C57BL/6 mice inoculated with STING-KO B16F10 cells", "experimental": "Animal metastasis studies: Animal experiments were performed in accordance with protocols approved by the MSKCC Institutional Animal Care and Use Committee. […] There was no need to randomize animals. Investigators were not blinded to group allocation. For tail vein injections, 5×10^4 4T1, 2.5×10^4 B16F10, or 10^5 CT26 cells were injected into the tail vein of 6-7-week old BALB/c (4T1 and CT26) or C57BL/6 (B16F10) mice. Metastasis was primarily assessed through overall survival. Overall survival endpoint was met when the mice died or met the criteria for euthanasia under the IACUC protocol. […] Surface lung metastases were assessed at endpoint by direct visual examination after euthanasia at which points lungs were perfused and fixed in 4% paraformaldehyde (4T1 and B16F10 experiments) or stained using India-ink (CT26 experiments). Furthermore, lung metastasis after injection of 4T1 cells was qualitatively assessed using routine hematoxylin and eosin (H&E) staining. […] Primary tumors were surgically excised on day 7 after implantation and metastatic dissemination was assessed by monitoring overall survival or on day 30 through quantification of surface lung metastases upon euthanasia. The length (L) and width (W) of the primary tumors were measured using calipers. Tumor size was calculated according to the following formula: L*W2/2. […]"}},
  "data": [
    {"molecule": "O=C(Nc1ccc(I)cc1)c1ccc([N+](=O)[O-])o1", "note": "[C-176]", "values": [
      {"measurement": "effect on ISG induction by cGAMP transfection", "setting": "STING", "value": "suppressed"},
      {"measurement": "survival advantage beyond STING KO", "setting": "STING-KO B16F10 cells", "value": "did not provide an additional survival advantage"}
    ]}
  ]
}
